Assay: xn = mol fraction of the nth substance listed
Settings: Liquid, Vibrating tube method

CCCO [propan-1-ol] + O=C=O
Settings	mass density [kg/m3]
313.24 K, x2 = 0.202	807
313.24 K, x2 = 0.2572	812.6
313.24 K, x2 = 0.3141	817.6
313.24 K, x2 = 0.4054	823.3
313.24 K, x2 = 0.4405	824.4
313.24 K, x2 = 0.5256	826.3
313.24 K, x2 = 0.5773	825.7
313.24 K, x2 = 0.6774	822
313.24 K, x2 = 0.7843	786.8
363.17 K, x2 = 0.1483	752
363.17 K, x2 = 0.2294	754.9
363.17 K, x2 = 0.3137	754.8
363.17 K, x2 = 0.4007	753.6
363.17 K, x2 = 0.4863	749.7
363.17 K, x2 = 0.6808	680.6
363.17 K, x2 = 0.7308	638.5

CC(C)O [propan-2-ol] + O=C=O
Settings	mass density [kg/m3]
313.22 K, x2 = 0.1267	783.1
313.22 K, x2 = 0.2066	789.6
313.22 K, x2 = 0.3029	799.3
313.22 K, x2 = 0.3845	803.6
313.22 K, x2 = 0.4501	806.7
313.22 K, x2 = 0.554	805.4
313.22 K, x2 = 0.6472	794.9
313.22 K, x2 = 0.7539	783.1
313.22 K, x2 = 0.902	703.7
333.03 K, x2 = 0.137	761
333.03 K, x2 = 0.2077	762.7
333.03 K, x2 = 0.3001	765
333.03 K, x2 = 0.4023	767.5
333.03 K, x2 = 0.4645	768.5
333.03 K, x2 = 0.6377	770.7
333.03 K, x2 = 0.7582	771.4
333.03 K, x2 = 0.8297	771.4
348.25 K, x2 = 0.0736	741.2
348.25 K, x2 = 0.1432	743.9
348.25 K, x2 = 0.2469	746.5
348.25 K, x2 = 0.3234	748.6
348.25 K, x2 = 0.4042	750.9
348.25 K, x2 = 0.5132	752.9
348.25 K, x2 = 0.5658	753.6
348.25 K, x2 = 0.7177	745.3
348.25 K, x2 = 0.755	646.5
348.25 K, x2 = 0.8241	568
362.92 K, x2 = 0.1016	641.7
362.92 K, x2 = 0.1668	690.6
362.92 K, x2 = 0.2312	726.4
362.92 K, x2 = 0.3079	728.3
362.92 K, x2 = 0.3719	728.7
362.92 K, x2 = 0.4681	726.5
362.92 K, x2 = 0.5653	704.5
362.92 K, x2 = 0.6285	671.6
362.92 K, x2 = 0.7165	590.4

From the NIST ThermoML archive (doi:10.1016/j.fluid.2010.03.004)
